{
  "source": "ChEMBL document CHEMBL5113408",
  "about": "“Design, synthesis and antitumour activity of novel 5(6)-amino-benzimidazolequinones containing a fused morpholine” (Eur J Med Chem, 2022)",
  "key": {"MGC-803 [1]": {"test_system": "MGC-803", "experiment": "Induction of cell cycle arrest in human MGC-803 cells assessed as accumulation of cells at S phase at 2 uM incubated for 36 hrs by PI staining based flow cytometry analysis (reference value: 20.5%)", "type": "functional"}, "HGC-27 [2]": {"test_system": "HGC-27", "experiment": "Induction of cell cycle arrest in human HGC-27 cells assessed as decrease in cyclin-B1 level at 1 to 4 uM by Western blot analysis", "type": "functional, cell-based", "details": "dose 1-4 µM"}, "HGC-27 [3]": {"test_system": "HGC-27", "experiment": "Induction of apoptosis in human HGC-27 cells assessed as decrease in caspase 9 protein expression level at 1 to 4 uM incubated for 48 hrs by Western blot analysis", "type": "functional, cell-based", "details": "dose 1-4 µM"}, "HGC-27 [4]": {"test_system": "HGC-27", "experiment": "Induction of DNA damage in human HGC-27 cells assessed as increase in gamma-H2AX generation incubated for 24 hrs by immunofluorescence analysis", "type": "functional, cell-based"}, "MGC-803 [5]": {"test_system": "MGC-803", "experiment": "Induction of cell cycle arrest in human MGC-803 cells assessed as accumulation of cells at G1 phase at 2 uM incubated for 36 hrs by PI staining based flow cytometry analysis (reference value: 45.8%)", "type": "functional"}, "MGC-803 [6]": {"test_system": "MGC-803", "experiment": "Inhibition of colony formation in human MGC-803 cells incubated for 24 hrs with fresh medium replacement for every two days measured for 11 days by crystal voilet staining based assay", "type": "functional, cell-based", "details": "dose 0.5-2 µM, time 11.0 day, DDE = dose-dependent effect"}, "MGC-803 [7]": {"test_system": "MGC-803", "experiment": "Induction of apoptosis in human MGC-803 cells assessed as increase in bax/bcl-2 expression level at 1 to 4 uM incubated for 48 hrs by Western blot analysis", "type": "functional, cell-based", "details": "dose 1-4 µM"}, "[8]": {"experiment": "Toxicity in BALB/c mouse xenografted with human MGC-803 cells assessed as effect on AST level at 10 to 20 mg/kg, ip administered once every two days", "type": "organism-based", "details": "in vivo, dose 10-20 mg/kg"}, "HGC-27 [9]": {"test_system": "HGC-27", "experiment": "Activation of ROS/JNK signalling in human HGC-27 cells assessed as increase in p-ASK1 level by Western blot analysis", "type": "cell-based", "details": "filed as activator, dose 1-4 µM, DDE = dose-dependent effect"}, "HGC-27 [10]": {"test_system": "HGC-27", "experiment": "Activation of ROS/JNK signalling in human HGC-27 cells assessed as increase in p-MKK4 level by Western blot analysis", "type": "cell-based", "details": "filed as activator, dose 1-4 µM, DDE = dose-dependent effect"}, "MGC-803 [11]": {"test_system": "MGC-803", "experiment": "Induction of apoptosis in human MGC-803 cells incubated for 48 hrs by Annexin V-FITC and PI staining based flow cytometry analysis", "type": "functional"}, "MGC-803 [12]": {"test_system": "MGC-803", "experiment": "Activation of ROS/JNK signalling in human MGC-803 cells assessed as increase in p-ASK1 level by Western blot analysis", "type": "cell-based", "details": "filed as activator, dose 1-4 µM, DDE = dose-dependent effect"}, "[13]": {"experiment": "Toxicity in BALB/c mouse xenografted with human MGC-803 cells assessed as effect on ALT level at 10 to 20 mg/kg, ip administered once every two days", "type": "organism-based", "details": "in vivo, dose 10-20 mg/kg"}, "MGC-803 [14]": {"test_system": "MGC-803", "experiment": "Induction of cell cycle arrest in human MGC-803 cells assessed as accumulation of cells at G1 phase at 4 uM incubated for 36 hrs by PI staining based flow cytometry analysis (reference value: 45.8%)", "type": "functional"}, "[15]": {"experiment": "Toxicity in BALB/c mouse xenografted with human MGC-803 cells assessed as effect on lung at 10 to 20 mg/kg, ip administered once every two days measured after 15 days by H and E staining based assay", "type": "organism-based", "details": "in vivo, 360 h, dose 10-20 mg/kg, time 15 day"}, "HGC-27 [16]": {"test_system": "HGC-27", "experiment": "Induction of apoptosis in human HGC-27 cells incubated for 48 hrs in presence of NAC by Annexin V-FITC and PI staining based flow cytometry analysis", "type": "functional"}, "MGC-803 [17]": {"test_system": "MGC-803", "experiment": "Induction of apoptosis in human MGC-803 cells assessed as increase in cleaved caspase 9 protein expression level at 1 to 4 uM incubated for 48 hrs by Western blot analysis", "type": "functional, cell-based", "details": "dose 1-4 µM"}, "HGC-27 [18]": {"test_system": "HGC-27", "experiment": "Induction of cell cycle arrest in human HGC-27 cells assessed as accumulation of cells at S phase at 2 uM incubated for 36 hrs by PI staining based flow cytometry analysis (reference value: 8.87%)", "type": "functional"}, "MGC-803 [19]": {"test_system": "MGC-803", "experiment": "Induction of apoptosis in human MGC-803 cells assessed as increase in cleaved caspase 3 protein expression level at 1 to 4 uM incubated for 48 hrs by Western blot analysis", "type": "functional, cell-based", "details": "dose 1-4 µM"}, "MGC-803 [20]": {"test_system": "MGC-803", "experiment": "Induction of cell cycle arrest in human MGC-803 cells assessed as accumulation of cells at G1 phase at 1 uM incubated for 36 hrs by PI staining based flow cytometry analysis (reference value: 45.8%)", "type": "functional"}, "MGC-803 [21]": {"test_system": "MGC-803", "experiment": "Induction of cell cycle arrest in human MGC-803 cells assessed as accumulation of cells at G2/M phase at 1 uM incubated for 36 hrs by PI staining based flow cytometry analysis (reference value: 20.5%)", "type": "functional"}, "HGC-27 [22]": {"test_system": "HGC-27", "experiment": "Induction of ROS generation in human HGC-27 cells at 1 to 4 uM incubated for 24 hrs by flow cytometry analysis", "type": "functional, cell-based", "details": "dose 1-4 µM"}, "HGC-27 [23]": {"test_system": "HGC-27", "experiment": "Induction of DNA damage in human HGC-27 cells assessed as increase in p-Chk generation incubated for 48 hrs by Western blot analysis", "type": "functional, cell-based", "details": "DDE = dose-dependent effect"}, "MGC-803 [24]": {"test_system": "MGC-803", "experiment": "Induction of cell cycle arrest in human MGC-803 cells assessed as decrease in p-cdc25c level at 1 to 4 uM by Western blot analysis", "type": "functional, cell-based", "details": "dose 1-4 µM"}, "HGC-27 [25]": {"test_system": "HGC-27", "experiment": "Induction of apoptosis in human HGC-27 cells assessed as increase in bax/bcl-2 expression level at 1 to 4 uM incubated for 48 hrs by Western blot analysis", "type": "functional, cell-based", "details": "dose 1-4 µM"}, "MGC-803 [26]": {"test_system": "MGC-803", "experiment": "Antiproliferative activity against human MGC-803 cells assessed as inhibition of cell growth by SRB assay", "type": "functional, cell-based"}, "MGC-803 [27]": {"test_system": "MGC-803", "experiment": "Antiproliferative activity against human MGC-803 cells assessed as inhibition of cell growth at 0.25 to 8 uM by SRB assay", "type": "functional, cell-based", "details": "dose 0.25-8 µM, time 24-72 hrs, TDE = time-dependent effect"}, "HeLa": {"test_system": "HeLa", "experiment": "Antiproliferative activity against human HeLa cells assessed as inhibition of cell growth by SRB assay", "type": "functional, cell-based"}, "[28]": {"experiment": "Toxicity in BALB/c mouse xenografted with human MGC-803 cells assessed as effect on uric acid level at 10 to 20 mg/kg, ip administered once every two days", "type": "organism-based", "details": "in vivo, dose 10-20 mg/kg"}, "HGC-27 [29]": {"test_system": "HGC-27", "experiment": "Induction of apoptosis in human HGC-27 cells assessed as decrease in caspase 3 protein expression level at 1 to 4 uM incubated for 48 hrs by Western blot analysis", "type": "functional, cell-based", "details": "dose 1-4 µM"}, "MGC-803 [30]": {"test_system": "MGC-803", "experiment": "Antitumor activity against human MGC-803 cells xenografted with BALB/c mouse assessed as reduction in tumor growth at 10 to 20 mg/kg, ip administered once every two days", "type": "functional, organism-based", "details": "dose 10-20 mg/kg"}, "HGC-27 [31]": {"test_system": "HGC-27", "experiment": "Induction of DNA damage in human HGC-27 cells assessed as appearance of longer comet tail at 4 uM", "type": "functional, cell-based"}, "MGC-803 [32]": {"test_system": "MGC-803", "experiment": "Activation of ROS/JNK signalling in human MGC-803 cells assessed as increase in p-MKK4 level by Western blot analysis", "type": "cell-based", "details": "filed as activator, dose 1-4 µM, DDE = dose-dependent effect"}, "MGC-803 [33]": {"test_system": "MGC-803", "experiment": "Antiproliferative activity against human MGC-803 cells assessed as inhibition of cell growth incubated for 24 to 72 hrs by SRB assay", "type": "functional, cell-based", "details": "dose 0.25-8 µM, time 24-72 hrs, DDE = dose-dependent effect"}, "MGC-803 [34]": {"test_system": "MGC-803", "experiment": "Induction of DNA damage in human MGC-803 cells assessed as increase in p-ATM generation incubated for 48 hrs by Western blot analysis", "type": "functional, cell-based", "details": "DDE = dose-dependent effect"}, "HGC-27 [35]": {"test_system": "HGC-27", "experiment": "Induction of DNA damage in human HGC-27 cells assessed as increase in gamma-H2AX generation incubated for 48 hrs by Western blot analysis", "type": "functional, cell-based", "details": "DDE = dose-dependent effect"}},
  "note": "Activity calls are given as the source filed them. No cut-off for these calls is given here.",
  "data": [
    {"smiles": "Cc1ccc(NC2=CC(=O)c3nc4n(c3C2=O)[C@H]2OC[C@@H](O)[C@H]2OC4)cc1C", "values": [
      {"measurement": "Activity", "setting": "MGC-803 [1]", "result": 39.3, "unit": "%"},
      {"measurement": "Activity", "setting": "HGC-27 [2]", "result": "Active"},
      {"measurement": "Activity", "setting": "HGC-27 [3]", "result": "Active"},
      {"measurement": "Activity", "setting": "HGC-27 [4]", "result": "Active"},
      {"measurement": "Activity", "setting": "MGC-803 [5]", "result": 29.2, "unit": "%"},
      {"measurement": "inhibition", "setting": "MGC-803 [6]", "result": "Dde"},
      {"measurement": "Activity", "setting": "MGC-803 [7]", "result": "Active"},
      {"measurement": "Activity", "setting": "[8]", "result": "Non-Toxic"},
      {"measurement": "Activity", "setting": "HGC-27 [9]", "result": "Dde"},
      {"measurement": "Activity", "setting": "HGC-27 [10]", "result": "Dde"},
      {"measurement": "Activity", "setting": "MGC-803 [11]", "result": 55.4, "unit": "%"},
      {"measurement": "Activity", "setting": "MGC-803 [12]", "result": "Dde"},
      {"measurement": "Activity", "setting": "[13]", "result": "Non-Toxic"},
      {"measurement": "Activity", "setting": "MGC-803 [14]", "result": 30.8, "unit": "%"},
      {"measurement": "Activity", "setting": "[15]", "result": "Non-Toxic"},
      {"measurement": "Activity", "setting": "HGC-27 [16]", "result": 1.4, "unit": "%"},
      {"measurement": "Activity", "setting": "MGC-803 [17]", "result": "Active"},
      {"measurement": "Activity", "setting": "HGC-27 [18]", "result": 10.7, "unit": "%"},
      {"measurement": "Activity", "setting": "MGC-803 [19]", "result": "Active"},
      {"measurement": "Activity", "setting": "MGC-803 [20]", "result": 33.6, "unit": "%"},
      {"measurement": "Activity", "setting": "MGC-803 [21]", "result": 23.5, "unit": "%"},
      {"measurement": "Activity", "setting": "HGC-27 [22]", "result": "Active"},
      {"measurement": "Activity", "setting": "HGC-27 [23]", "result": "Dde"},
      {"measurement": "Activity", "setting": "MGC-803 [24]", "result": "Active"},
      {"measurement": "Activity", "setting": "HGC-27 [25]", "result": "Active"},
      {"measurement": "IC50", "setting": "MGC-803 [26]", "result": 0.86, "unit": "µM"},
      {"measurement": "Activity", "setting": "MGC-803 [27]", "result": "Tde"},
      {"measurement": "IC50", "setting": "HeLa", "result": 2.69, "unit": "µM"},
      {"measurement": "Activity", "setting": "[28]", "result": "Non-Toxic"},
      {"measurement": "Activity", "setting": "HGC-27 [29]", "result": "Active"},
      {"measurement": "Activity", "setting": "MGC-803 [30]", "result": "Active"},
      {"measurement": "Activity", "setting": "HGC-27 [31]", "result": "Active"},
      {"measurement": "Activity", "setting": "MGC-803 [32]", "result": "Dde"},
      {"measurement": "Activity", "setting": "MGC-803 [33]", "result": "Dde"},
      {"measurement": "Activity", "setting": "MGC-803 [34]", "result": "Dde"},
      {"measurement": "Activity", "setting": "HGC-27 [35]", "result": "Dde"}
    ]}
  ]
}
